From patent US20240383908A1, “SYNTHESIS AND APPLICATION OF PHOSPHATASE DEGRADER” (HINOVA PHARMACEUTICALS INC., priority 2021, published 2024) come the findings set out here.

Type in all cases: cell-based
One assay deals with NCI-H1975. The assay can be described thus: Inhibition of cell proliferation, NCI-H1975 (CCK-8). As to conditions: Homo sapiens, NCI-H1975 cells, read-out: Inhibition activity on the proliferation of different cell lines NCI-H1975 (IC50). The protocol: (§1) (1) MV-411 cells were cultured in the cell culture medium, and then well-growing cells were selected and inoculated in a 96-well plate at 80 μL/well, with 2×10^4 cells/well. The plate was incubated overnight in a 5% CO2 cell incubator at 37° C.
(§2) (2) 10 mM storage solution of each drug was prepared using dimethylsulfoxide (DMSO). The stock solution was diluted in a ratio of 1:3 with DMSO before use, and then the solution was serially diluted in a ratio of 1:3, to obtain 9 gradient concentrations. Each concentration was further diluted with the medium in a ratio of 1:200 (to ensure that the DMSO concentration in the culture system was 0.1%). Two wells were set for each concentration. 20 μL of each compound solution was added to the cell culture well (with a final concentration of 10 μM, 3.3 μM, 1.1 μM . . . ). The plate was gently shaken and mixed. Additionally, 3 negative control wells (only containing cells) and 3 blank control wells (only containing the medium) were included (6 wells were each added with 20 μL of DMSO diluted with the medium in a ratio of 1:200).
(§3) (1) After 5 days of cultivation, 10 μL of CCK-8 was added to each well, and then the plate was further cultured for 3 h at 37° C. in a 5% CO2 cell incubator.
(§4) (2) The absorbance (OD value) was measured at 450 nm with a multifunctional microplate reader. (3) The data were analyzed using the Dose-response-inhibition equation in GraphPad Prism8 software to obtain the IC50 value.
(§5) Using a similar method, the IC50 value (nM) for the inhibitory activity of the compound according to the present invention against different cell lines was obtained, and the results are shown in Table 3 (++++: IC50>5 μM; +++: 1 μM<IC50<5 μM; ++: IC50<1 μM).

Assay [1] has as its target T1, SHP2 protein (Homo sapiens, UniProt Q06124).
T1 sequence (Q06124 1-593): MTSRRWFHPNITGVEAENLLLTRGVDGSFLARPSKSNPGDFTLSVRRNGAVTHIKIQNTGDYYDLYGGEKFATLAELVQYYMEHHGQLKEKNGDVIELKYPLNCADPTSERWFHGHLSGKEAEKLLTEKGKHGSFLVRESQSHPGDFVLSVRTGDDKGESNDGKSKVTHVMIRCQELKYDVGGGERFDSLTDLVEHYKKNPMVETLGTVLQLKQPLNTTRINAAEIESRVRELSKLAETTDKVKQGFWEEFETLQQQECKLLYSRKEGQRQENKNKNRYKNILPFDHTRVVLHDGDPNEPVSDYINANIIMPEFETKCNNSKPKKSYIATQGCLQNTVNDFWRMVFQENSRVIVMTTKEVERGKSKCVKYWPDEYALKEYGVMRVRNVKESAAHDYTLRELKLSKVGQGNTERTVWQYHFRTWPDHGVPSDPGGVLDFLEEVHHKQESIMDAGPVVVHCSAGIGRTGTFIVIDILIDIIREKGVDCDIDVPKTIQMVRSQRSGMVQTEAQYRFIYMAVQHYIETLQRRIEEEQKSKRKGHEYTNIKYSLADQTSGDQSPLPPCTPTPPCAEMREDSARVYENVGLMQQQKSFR
The assay can be described thus: Degradation activity on SHP2 protein in MIA Paca-2 cells (Western blot, DC50). Conditions: read-out: Degradation activity for differenct cell lines MIA Paca-2 (DC50). The arrangement: endogenous in cells; host or cells: MIA Paca-2 cells. The method in brief: (§6)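 Cells were treated 24 h at 37 °C with compound (0.1–100 nM final, 0.1% DMSO). SHP2 was measured by Western blot with GAPDH as loading control, densitometry normalized to DMSO (100%). DC50, the concentration giving 50% degradation, came from a dose-response fit.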
(In general: Immunoblotting shows a protein as a band on a membrane.)

The next assay deals with MV-411 cell line. Kind of assay: Inhibition of cell proliferation, MV-411 (CCK-8). As to conditions: Homo sapiens, MV4-11, 120 h, MV411 cells, 5 days, read-out: Inhibition activity on the proliferation of different cell lines MV411 (IC50). The protocol: • MV-411 cell line (COBIER, CBP-60522) • FBS (GEMINI, Cat. No. 900-108) • 0.01M PBS (Biosharp, Cat. No. 162262) • IMDM (Hyclone, Cat. No. SH30228.01) • Penicillin-Streptomycin (Gibco, Cat. No. 15140122) • DMSO (Sigma, Cat. No. D5879) • Cell counting kit-8 (Signalway Antibody, Cat. No. CP002) • Centrifuge Tube, 15 ml (Excell Bio, Cat. No. CS015-0001) • Cell Culture Dish, (WHB, Cat. No. CS016-0128) • 96-well cell culture cluster (Corning, Cat. No. 3599)
• (1) Cell culture medium: IMDM medium+10% FBS+1% Pen Strep; • (2) PBS buffer: PBS powder was dissolved in 2 L of ultrapure water and sterilized;
as §1, §2, §3, §4

Another assay relates to KYSE 520. The assay can be described thus: Inhibition of cell proliferation, KYSE 520 (CCK-8). As to conditions: Homo sapiens, KYSE 520 cells, read-out: Inhibition activity on the proliferation of different cell lines KYSE 520 (IC50). The protocol:
as §1, §2, §3, §4, §5

For assay [2], the target named is T1, SHP2 protein. Kind of assay: Degradation activity on SHP2 protein in NCI-H358 cells (Western blot, DC50). The arrangement: endogenous in cells. As to conditions: read-out: Degradation activity for differenct cell lines NCI-H358 (DC50). Summed up: as §6

Structures can show the parent of a compound that is named as a salt.

For `CC1(N)CCN(c2cnc(Sc3cccc(NC(=O)c4ccc(N5CCC(N6CC=C(c7ccc(C(=O)NCc8ccc9c(c8)CN(C8CCC(=O)NC8=O)C9=O)nc7)CC6)C5)cc4)c3)cn2)CC1` (stereo not drawn) [Compound 403], the IC50 with NCI-H1975 lay within 1 to 5 µM. For the same compound, the half-maximal degradation concentration (DC50) at SHP2 protein [1] was below 0.1 µM.
With `C[C@@H]1OCC2(CCN(c3cnc(Sc4cccc(NC(=O)c5ccc(N6CCC(N7CC=C(c8ccc(C(=O)NCc9ccc%10c(c9)CN(C9CCC(=O)NC9=O)C%10=O)nc8)CC7)CC6)c(F)c5)c4)cn3)CC2)[C@@H]1N` (stereo partly drawn) [Compound 412], the figures for the IC50 in the assay with MV-411 cell line, with NCI-H1975 and in the assay on KYSE 520 were 1 to 5 µM, below 1 µM and 1 to 5 µM, respectively. The DC50 at SHP2 protein [1] is below 0.1 µM.
Regarding `Cc1cc(C(=O)Nc2cccc(Sc3cnc(N4CCC(C)(N)CC4)cn3)c2)ccc1N1CCC(N2CC=C(c3ccc(C(=O)NCc4ccc5c(c4)CN(C4CCC(=O)NC4=O)C5=O)nc3)CC2)CC1` (stereo not drawn) [Compound 422], the results for the IC50 with MV-411 cell line and in the assay with KYSE 520 were 1 to 5 µM and above 5 µM, respectively. Also, the DC50 on SHP2 protein [2] and at SHP2 protein [1] was below 0.1 µM each time.
With `C[C@@H]1OCC2(CCN(c3cnc(Sc4cccc(NC(=O)c5ccc(N6CCC(N7CC=C(c8ccc(C(=O)NCc9ccc%10c(c9)CN(C9CCC(=O)NC9=O)C%10=O)c(F)c8)CC7)CC6)c(F)c5)c4)cn3)CC2)[C@@H]1N` (stereo partly drawn) [Compound 482], in the assay on NCI-H1975, the IC50 was below 1 µM. Besides, the 50% degradation concentration (DC50) on SHP2 protein [1] is below 0.1 µM.
For `C[C@@H]1OCC2(CCN(c3cnc(Sc4cccc(NCc5ccc(N6CCC(N7CC=C(c8ccc(C(=O)NCc9ccc%10c(c9)CN(C9CCC(=O)NC9=O)C%10=O)nc8)CC7)CC6)c(F)c5)c4)cn3)CC2)[C@@H]1N` (stereo partly drawn) [Compound 485], in that order: below 1 µM and below 0.1 µM.
Take `C[C@@H]1OCC2(CCN(c3cnc(Sc4cccc(NC(=O)c5ccc(N6CCC(N7CCN(c8ccc(C(=O)NCc9ccc%10c(c9)CN(C9CCC(=O)NC9=O)C%10=O)c(F)c8)CC7)CC6)c(F)c5)c4)cn3)CC2)[C@@H]1N` (stereo partly drawn) [Compound 501, hydrochloride]: the IC50 in the assay with MV-411 cell line was below 1 µM; in the assay on NCI-H1975, 1 to 5 µM; in the assay on KYSE 520, 1 to 5 µM. Moreover, on SHP2 protein [1], the half-maximal degradation concentration (DC50) is below 0.1 µM.

As usually defined, the DC50 is the concentration at which degradation of the target reaches its halfway point.
